Reference: ChEMBL document CHEMBL5108067, “Discovery of Potent OTUB1/USP8 Dual Inhibitors Targeting Proteostasis in Non-Small-Cell Lung Cancer” (J Med Chem, 2022)

These molecules were tested on EBC-1 (assay: Antiproliferative activity against human EBC-1 cells harboring wild type KRAS incubated for 72 hrs by MTT assay). Settings: EBC-1, 72 h.
Type: functional, cell-based

| Compound | IC50 |
| --- | --- |
| CN1CC[C@@H](Oc2ccc(F)c(-c3nc4c(o3)C(=O)c3ccccc3C4=O)c2Cl)C1 | 172 nM |
| CN1CC[C@@H](Oc2ccc(Cl)c(-c3nc4c(o3)C(=O)c3ccccc3C4=O)c2F)C1 | 176 nM |
| CN1CC[C@@H](Oc2ccc(Cl)c(-c3nc4c(o3)C(=O)c3ccccc3C4=O)c2)C1 | 138 nM |
| O=C1c2ccccc2C(=O)c2oc(-c3cccnc3)nc21 | 122 nM |

The molecules below were run against T1, Ubiquitin carboxyl-terminal hydrolase 2 (Homo sapiens, UniProt O75604) (assay: Inhibition of USP2 (unknown origin) using Ub-Rho measured after 0.5 to 3 hrs). Settings: not given.
T1 sequence (O75604 whole entry): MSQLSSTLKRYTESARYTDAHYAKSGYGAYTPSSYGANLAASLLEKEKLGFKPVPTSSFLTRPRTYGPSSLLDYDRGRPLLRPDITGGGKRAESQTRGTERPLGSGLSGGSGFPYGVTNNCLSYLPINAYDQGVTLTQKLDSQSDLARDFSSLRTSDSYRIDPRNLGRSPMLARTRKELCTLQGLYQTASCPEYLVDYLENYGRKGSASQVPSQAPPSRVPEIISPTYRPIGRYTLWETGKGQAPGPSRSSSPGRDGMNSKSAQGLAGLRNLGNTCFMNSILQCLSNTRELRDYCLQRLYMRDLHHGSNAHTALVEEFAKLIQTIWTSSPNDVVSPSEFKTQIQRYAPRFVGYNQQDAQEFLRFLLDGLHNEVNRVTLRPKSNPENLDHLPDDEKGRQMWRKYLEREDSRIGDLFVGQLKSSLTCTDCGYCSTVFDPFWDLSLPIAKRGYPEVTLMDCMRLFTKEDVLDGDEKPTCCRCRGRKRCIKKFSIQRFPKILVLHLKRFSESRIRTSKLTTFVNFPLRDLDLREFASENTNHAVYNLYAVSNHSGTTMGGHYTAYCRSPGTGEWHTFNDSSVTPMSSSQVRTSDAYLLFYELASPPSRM

| Compound | IC50 |
| --- | --- |
| CN1CC[C@@H](Oc2ccc(F)c(-c3nc4c(o3)C(=O)c3ccccc3C4=O)c2Cl)C1 | 3800 nM |
| CN1CC[C@@H](Oc2ccc(Cl)c(-c3nc4c(o3)C(=O)c3ccccc3C4=O)c2F)C1 | > 10000 nM |
| CN1CC[C@@H](Oc2ccc(Cl)c(-c3nc4c(o3)C(=O)c3ccccc3C4=O)c2)C1 | 6200 nM |
| O=C1c2ccccc2C(=O)c2oc(-c3cccnc3)nc21 | 5100 nM |

What follows are molecules tested against T2, Ubiquitin carboxyl-terminal hydrolase 36 (Homo sapiens, UniProt Q9P275) (assay: Inhibition of USP36 (unknown origin) using Ub-Rho measured after 0.5 to 3 hrs). Settings: not given.
T2 sequence (Q9P275 whole entry): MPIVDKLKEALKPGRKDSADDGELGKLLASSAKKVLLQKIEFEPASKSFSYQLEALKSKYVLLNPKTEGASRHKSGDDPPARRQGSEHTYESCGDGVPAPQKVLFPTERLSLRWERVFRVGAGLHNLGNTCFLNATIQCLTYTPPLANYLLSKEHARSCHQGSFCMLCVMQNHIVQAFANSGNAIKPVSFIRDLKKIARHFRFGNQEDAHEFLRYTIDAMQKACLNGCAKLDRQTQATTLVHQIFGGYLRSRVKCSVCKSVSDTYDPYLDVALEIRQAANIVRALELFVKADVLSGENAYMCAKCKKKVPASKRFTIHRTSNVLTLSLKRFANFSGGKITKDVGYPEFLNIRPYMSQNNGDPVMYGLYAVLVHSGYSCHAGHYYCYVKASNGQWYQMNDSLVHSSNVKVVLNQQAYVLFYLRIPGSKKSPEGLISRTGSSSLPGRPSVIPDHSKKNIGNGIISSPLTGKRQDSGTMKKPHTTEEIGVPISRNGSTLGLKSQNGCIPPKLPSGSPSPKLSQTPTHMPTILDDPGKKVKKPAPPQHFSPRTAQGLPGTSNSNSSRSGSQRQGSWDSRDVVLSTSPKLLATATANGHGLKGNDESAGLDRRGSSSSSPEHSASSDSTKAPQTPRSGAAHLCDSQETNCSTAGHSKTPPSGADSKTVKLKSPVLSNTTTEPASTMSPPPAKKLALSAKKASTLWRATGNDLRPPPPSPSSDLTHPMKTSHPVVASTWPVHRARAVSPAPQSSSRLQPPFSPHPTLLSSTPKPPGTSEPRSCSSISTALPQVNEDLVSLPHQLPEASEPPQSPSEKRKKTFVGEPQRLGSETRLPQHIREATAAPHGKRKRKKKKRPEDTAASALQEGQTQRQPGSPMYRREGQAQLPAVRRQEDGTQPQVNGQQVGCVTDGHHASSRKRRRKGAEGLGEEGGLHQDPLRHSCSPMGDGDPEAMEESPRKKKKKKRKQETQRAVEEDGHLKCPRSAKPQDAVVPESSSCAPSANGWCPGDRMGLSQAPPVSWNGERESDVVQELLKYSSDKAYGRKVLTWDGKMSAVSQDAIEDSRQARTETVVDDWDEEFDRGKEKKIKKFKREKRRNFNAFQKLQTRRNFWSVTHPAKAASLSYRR

| Compound | IC50 |
| --- | --- |
| CN1CC[C@@H](Oc2ccc(F)c(-c3nc4c(o3)C(=O)c3ccccc3C4=O)c2Cl)C1 | 8400 nM |
| CN1CC[C@@H](Oc2ccc(Cl)c(-c3nc4c(o3)C(=O)c3ccccc3C4=O)c2F)C1 | 7200 nM |
| CN1CC[C@@H](Oc2ccc(Cl)c(-c3nc4c(o3)C(=O)c3ccccc3C4=O)c2)C1 | > 10000 nM |
| O=C1c2ccccc2C(=O)c2oc(-c3cccnc3)nc21 | 3900 nM |

These molecules were tested on NCI-H1703 (assay: Antiproliferative activity against human NCI-H1703 cells harboring wild type KRAS incubated for 72 hrs by MTT assay). Settings: NCI-H1703, 72 h.
Type: functional, cell-based

| Compound | IC50 |
| --- | --- |
| CN1CC[C@@H](Oc2ccc(F)c(-c3nc4c(o3)C(=O)c3ccccc3C4=O)c2Cl)C1 | 145 nM |
| CN1CC[C@@H](Oc2ccc(Cl)c(-c3nc4c(o3)C(=O)c3ccccc3C4=O)c2F)C1 | 173 nM |
| CN1CC[C@@H](Oc2ccc(Cl)c(-c3nc4c(o3)C(=O)c3ccccc3C4=O)c2)C1 | 113 nM |
| O=C1c2ccccc2C(=O)c2oc(-c3cccnc3)nc21 | 93 nM |

These molecules were tested against Ubiquitin thioesterase OTUB1 (Homo sapiens, UniProt Q96FW1) (assay: Inhibition of N-terminal His-6 tagged OTUB1 (40 to 271 residues) (unknown origin) expressed in Escherichia coli BL21 (DE3) cells using Ub-Rho measured after 0.5 to 3 hrs by fluorescence based Plate reader method). Settings: not given.
Sequence of Ubiquitin thioesterase OTUB1 (Q96FW1 whole entry, the tested form may be a part): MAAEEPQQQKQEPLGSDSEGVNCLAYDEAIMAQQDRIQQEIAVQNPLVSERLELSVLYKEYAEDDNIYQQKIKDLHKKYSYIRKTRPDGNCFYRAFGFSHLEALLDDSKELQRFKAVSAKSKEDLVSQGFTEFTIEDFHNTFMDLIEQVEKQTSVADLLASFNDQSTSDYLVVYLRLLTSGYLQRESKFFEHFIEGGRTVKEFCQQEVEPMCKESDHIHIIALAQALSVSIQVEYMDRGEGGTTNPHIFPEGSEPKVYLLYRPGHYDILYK

| Compound | IC50 |
| --- | --- |
| CN1CC[C@@H](Oc2ccc(F)c(-c3nc4c(o3)C(=O)c3ccccc3C4=O)c2Cl)C1 | 0.17 nM |
| CN1CC[C@@H](Oc2ccc(Cl)c(-c3nc4c(o3)C(=O)c3ccccc3C4=O)c2F)C1 | 0.42 nM |
| CN1CC[C@@H](Oc2ccc(Cl)c(-c3nc4c(o3)C(=O)c3ccccc3C4=O)c2)C1 | 7.1 nM |
| O=C1c2ccccc2C(=O)c2oc(-c3cccnc3)nc21 | 1.7 nM |

Each molecule was assayed on NCI-H23 (assay: Antiproliferative activity against human NCI-H23 cells harboring KRAS mutant incubated for 72 hrs by MTT assay). Settings: NCI-H23, 72 h.
Type: functional, cell-based

| Compound | IC50 |
| --- | --- |
| CN1CC[C@@H](Oc2ccc(F)c(-c3nc4c(o3)C(=O)c3ccccc3C4=O)c2Cl)C1 | 431 nM |
| CN1CC[C@@H](Oc2ccc(Cl)c(-c3nc4c(o3)C(=O)c3ccccc3C4=O)c2F)C1 | 423 nM |
| CN1CC[C@@H](Oc2ccc(Cl)c(-c3nc4c(o3)C(=O)c3ccccc3C4=O)c2)C1 | 266 nM |
| O=C1c2ccccc2C(=O)c2oc(-c3cccnc3)nc21 | 281 nM |
